Data published in ChEMBL document CHEMBL4613209, “Quinolone hybrids and their anti-cancer activities: An overview” (Eur J Med Chem, 2019).
pIC50: −log10 of the molar value. ≈ marks a conversion by molar mass, not a printed value.

Experiments:
[1] = system: MDA-MB-231; assay: Growth inhibition of human MDA-MB-231 cells after 48 hrs by SRB assay; type: functional; details: MDA-MB-231, 48 h
[2] = system: SiHa; assay: Growth inhibition of human SiHa cells after 48 hrs by SRB assay; type: functional
[3] = system: ACHN; assay: Cytotoxicity against human ACHN cells assessed as reduction in cell viability after 72 hrs by MTT assay; type: functional, cell-based
[4] = system: KB; assay: Cytotoxicity against human KB cells assessed as reduction in cell viability after 72 hrs by MTT assay; type: functional, cell-based
[5] = system: A2780; assay: Cytotoxicity against human A2780 cells assessed as reduction in cell viability after 72 hrs by MTT assay; type: functional, cell-based; details: A2780, 72 h
[6] = system: A 172; assay: Cytotoxicity against human A172 cells assessed as reduction in cell viability after 72 hrs by MTT assay; type: functional, cell-based; details: A 172, 72 h
[7] = system: A549; assay: Cytotoxicity against human A549 cells assessed as reduction in cell viability after 72 hrs by MTT assay; type: functional, cell-based; details: A549, 72 h
[8] = system: SK-MEL3; assay: Cytotoxicity against human SK-MEL-3 cells assessed as reduction in cell viability after 72 hrs by MTT assay; type: functional, cell-based; details: SK-MEL3, 72 h
[9] = system: MCF7; assay: Cytotoxicity against human MCF7 cells assessed as reduction in cell viability after 72 hrs by MTT assay; type: functional, cell-based; details: MCF7, 72 h
[10] = system: B16-F10; assay: Cytotoxicity against mouse B16F10 cells assessed as reduction in cell viability; type: functional, cell-based
[11] = system: HT-29; assay: Anticancer activity against human HT-29 cells; type: functional, cell-based
[12] = system: A549; assay: Anticancer activity against human A549 cells; type: functional, cell-based
[13] = system: P388; assay: Anticancer activity against doxorubicin resistant mouse P388 cells; type: functional, cell-based
[14] = system: HT-29; assay: Cytotoxicity against human HT-29 cells assessed as reduction in cell viability; type: functional, cell-based
[15] = system: P388; assay: Cytotoxicity against doxorubicin resistant mouse P388 cells assessed as reduction in cell viability; type: functional, cell-based
[16] = system: P388; assay: Cytotoxicity against mouse P388 cells assessed as reduction in cell viability; type: functional, cell-based
[17] = system: HCT-8; assay: Anticancer activity against human HCT8 cells; type: functional, cell-based
[18] = system: MCF7; assay: Anticancer activity against human MCF7 cells; type: functional, cell-based
[19] = system: Lewis lung carcinoma cell line; assay: Anticancer activity against mouse LLC cells; type: functional, cell-based
[20] = system: B16-F10; assay: Anticancer activity against mouse B16F10 cells; type: functional, cell-based
[21] = system: A549; assay: Cytotoxicity against human A549 cells assessed as reduction in cell viability; type: functional, cell-based
[22] = system: P388; assay: Anticancer activity against mouse P388 cells; type: functional, cell-based
[23] = system: HL-60; assay: Anticancer activity against human HL60 cells by MTT assay; type: functional, cell-based
[24] = system: HepG2; assay: Anticancer activity against human HepG2 cells by MTT assay; type: functional, cell-based
[25] = system: HT-29; assay: Anticancer activity against human HT-29 cells by MTT assay; type: functional, cell-based
[26] = system: NCI-H460; assay: Growth inhibition of human NCI-H460 cells; type: functional; details: pooled result: one value given for 3 cell lines, strains, targets or settings
[27] = system: A549; assay: Antiproliferative activity against human A549 cells by CCK8 assay; type: functional, cell-based
[28] = system: MCF-10A; assay: Antiproliferative activity against human MCF10A cells by CCK8 assay; type: cell-based
[29] = system: PC-3; assay: Antiproliferative activity against human PC3 cells by CCK8 assay; type: functional, cell-based
[30] = system: MCF7; assay: Antiproliferative activity against human MCF7 cells by CCK8 assay; type: functional, cell-based
[31] = system: HepG2; assay: Antiproliferative activity against human HepG2 cells by CCK8 assay; type: functional, cell-based
[32] = biological target: Histone deacetylase; assay: Inhibition of HDAC (unknown origin); type: protein assay, Homo sapiens
[33] = system: HeLa; assay: Antiproliferative activity against human HeLa cells by CCK8 assay; type: functional, cell-based
[34] = biological target: Tubulin; assay: Inhibition of tubulin polymerization (unknown origin); type: protein-complex assay, Homo sapiens

CCn1cc(C(=O)O)c(=O)c2cnc(N3CCN(C(=O)CCSc4nnnn4-c4ccc(F)c(F)c4F)CC3)nc21
GI50 [1]: ≤ 0.1 µM
GI50 [2]: ≤ 0.1 µM

O=C(O)c1cn(C2CC2)c2cc(N3CCN(C(=O)CCSc4nnnn4Cc4ccccc4)CC3)c(F)cc2c1=O
GI50 [1]: ≤ 0.1 µM
GI50 [2]: ≤ 0.1 µM

O=C(O)c1cn(C2CC2)c2cc(N3CCN(C(=O)CCSc4nnnn4-c4ccc(Br)cc4)CC3)c(F)cc2c1=O
GI50 [1]: ≤ 0.1 µM
GI50 [2]: ≤ 0.1 µM

CO/N=C(/CN1CCN(c2cc3c(cc2F)c(=O)c(C(=O)O)cn3C2CC2)CC1)c1ccco1
pIC50 [3]: < 4.00
pIC50 [4]: < 4.00
pIC50 [5]: < 4.00
pIC50 [6]: < 4.00
pIC50 [7]: < 4.00
pIC50 [8]: < 4.00
pIC50 [9]: < 4.00

O=C(O)c1cn(C2CC2)c2cc(N3CCN(C/C(=N/OCc4ccc(Cl)cc4)c4cccs4)CC3)c(F)cc2c1=O
pIC50 [3]: ≥ 5.00
pIC50 [4]: ≥ 5.00
pIC50 [5]: ≥ 5.00
pIC50 [6]: ≥ 5.00
pIC50 [7]: ≥ 5.00
pIC50 [8]: ≥ 5.00
pIC50 [9]: ≥ 5.00

Cc1cccc(C)c1NC1CCN(C2C(F)=Cc3c4n(cc(C(=O)O)c3=O)-c3ccccc3OC42)C1 (stereo not given)
IC50 [10]: 0.011 to 0.59 µg/mL (≈ 0.0226 to 1.21 µM)
pIC50 [11]: 6.31 to 7.52
pIC50 [12]: 6.31 to 7.52
pIC50 [13]: 6.31 to 7.52
IC50 [14]: 0.011 to 0.59 µg/mL (≈ 0.0226 to 1.21 µM)
IC50 [15]: 0.011 to 0.59 µg/mL (≈ 0.0226 to 1.21 µM)
IC50 [16]: 0.011 to 0.59 µg/mL (≈ 0.0226 to 1.21 µM)
pIC50 [17]: 6.31 to 7.52
pIC50 [18]: 6.31 to 7.52
pIC50 [19]: 6.31 to 7.52
pIC50 [20]: 6.31 to 7.52
IC50 [21]: 0.011 to 0.59 µg/mL (≈ 0.0226 to 1.21 µM)
pIC50 [22]: 6.31 to 7.52

CCOC(=O)c1cn(Cc2cn(-c3ccc(C)cc3)nn2)c2ccc(F)cc2c1=O
pIC50 [23]: 4.05 to 4.88
pIC50 [24]: 4.05 to 4.88
pIC50 [25]: 4.05 to 4.88

CCn1cc(C(=O)O)c(=O)c2cc(F)c(N3CCN(C/C(=N/OC)c4ccco4)CC3)cc21
pIC50 [3]: < 4.00
pIC50 [4]: < 4.00
pIC50 [5]: < 4.00
pIC50 [6]: < 4.00
pIC50 [7]: < 4.00
pIC50 [8]: < 4.00
pIC50 [9]: < 4.00

N=c1c(-c2nn3c(-c4cn(C5CC5)c5cc(N6CCNCC6)c(F)cc5c4=O)nnc3s2)cn(C2CC2)c2cc(N3CCNCC3)c(F)cc12
pIC50 [3]: ≥ 5.00
pIC50 [4]: ≥ 5.00
pIC50 [5]: ≥ 5.00
pIC50 [6]: ≥ 5.00
pIC50 [7]: ≥ 5.00
pIC50 [8]: ≥ 5.00
pIC50 [9]: ≥ 5.00

O=c1[nH]c2ccc(F)cc2c2oc3ccccc3c12
GI50 [26]: 10.7 to 53.7 µM

O=c1[nH]c2ccccc2c2[nH]c(-c3ccccc3)c(-c3ccccc3)c12
GI50 [26]: 27.5 µM

O=C(O)c1cn(C2CC2)c2cc(N3CCN(C/C(=N/OCc4ccc(Cl)cc4)c4ccco4)CC3)c(F)cc2c1=O
pIC50 [3]: ≥ 5.00
pIC50 [4]: ≥ 5.00
pIC50 [5]: ≥ 5.00
pIC50 [6]: ≥ 5.00
pIC50 [7]: ≥ 5.00
pIC50 [8]: ≥ 5.00
pIC50 [9]: ≥ 5.00

C[C@H]1COc2c(N3CCN(C)CC3)c(F)cc3c(=O)c(C(=O)NCc4cn(CCCCCC(=O)NO)nn4)cn1c23
pIC50 [27]: 4.89 to 6.52
pIC50 [28]: < 4.00
pIC50 [29]: 4.89 to 6.52
pIC50 [30]: 4.89 to 6.52
pIC50 [31]: 4.89 to 6.52
pIC50 [32]: 6.07 to 7.68
pIC50 [33]: 4.89 to 6.52
pIC50 [34]: 5.20 to 5.75

CCOC(=O)c1cn(Cc2cn(-c3ccc(Cl)cc3)nn2)c2ccc(C)cc2c1=O
pIC50 [23]: 4.05 to 4.88
pIC50 [24]: 4.05 to 4.88
pIC50 [25]: 4.05 to 4.88

NC1CCN(C2C(F)=Cc3c4n(cc(C(=O)O)c3=O)-c3ccccc3OC42)C1 (stereo not given)
IC50 [10]: 0.011 to 0.59 µg/mL (≈ 0.0287 to 1.54 µM)
pIC50 [11]: 6.31 to 7.52
pIC50 [12]: 6.31 to 7.52
pIC50 [13]: 6.31 to 7.52
IC50 [14]: 0.011 to 0.59 µg/mL (≈ 0.0287 to 1.54 µM)
IC50 [15]: 0.011 to 0.59 µg/mL (≈ 0.0287 to 1.54 µM)
IC50 [16]: 0.011 to 0.59 µg/mL (≈ 0.0287 to 1.54 µM)
pIC50 [17]: 6.31 to 7.52
pIC50 [18]: 6.31 to 7.52
pIC50 [19]: 6.31 to 7.52
pIC50 [20]: 6.31 to 7.52
IC50 [21]: 0.011 to 0.59 µg/mL (≈ 0.0287 to 1.54 µM)
pIC50 [22]: 6.31 to 7.52

COc1ccc2c(c1)[nH]c(=O)c1c3ccccc3oc21
GI50 [26]: 10.7 to 53.7 µM

CCOC(=O)c1cn(Cc2cn(-c3ccc(Cl)cc3)nn2)c2ccc(Cl)cc2c1=O
pIC50 [23]: 4.05 to 4.88
pIC50 [24]: 4.05 to 4.88
pIC50 [25]: 4.05 to 4.88

CCOC(=O)c1cn(Cc2cn(-c3ccc([N+](=O)[O-])cc3)nn2)c2ccc(Cl)cc2c1=O
pIC50 [23]: 4.05 to 4.88
pIC50 [24]: 4.05 to 4.88
pIC50 [25]: 4.05 to 4.88
